Reference: article PMC12655172, “Borylated 5-Membered Ring Iminosugars: Synthesis and Biological Evaluation for Glycosidase Inhibition and Anticancer Properties for Application in Boron Neutron Capture Therapy (BNCT)—Part 2” (Pharmaceuticals, 2025)

Columns and labels:
β-D-glucosidase (almond) = assay: Glycosidase inhibition (Table 2 panel); type: biochemical
Source text: (§1) The enzymes α-D-glucosidase (yeast), β-D-glucosidases (almond, bovine liver), α-D-galactosidase (coffee beans), β-D-galactosidase (bovine liver), α-D-mannosidase (Jack bean), β-D-mannosidase (snail), α-L-rhamnosidase (P. decumbens), α-L-fucosidase (bovine kidney), trehalase (porcine kidney), β-D-glucuronidases (E. coli, bovine liver), amyloglucosidase (A. niger), para-nitrophenyl glycosides, and various disaccharides were purchased from Sigma-Aldrich Co (St. Louis, MO, USA).
(§2) Brush border membranes were prepared from the rat small intestine according to the method of Kessler et al., and were assayed at pH 6.8 for rat intestinal maltase using maltose. For rat intestinal maltase, porcine kidney trehalase, and A. niger amyloglucosidase activities, the reaction mixture contained maltose (25 μM) and the appropriate amount of enzyme, and the incubations were performed for 10–30 min at 37 °C. The reaction was stopped by heating at 100 °C for 3 min. After centrifugation (600 g; 10 min), the resulting reaction mixture was added to the Glucose CII-test Wako (Wako Pure Chemical Ind., Osaka, Japan). The absorbance at 505 nm was measured to determine the amount of the released D-glucose. Other glycosidase activities were determined using an appropriate para-nitrophenyl glycoside as substrate at the optimum pH of each enzyme. The reaction mixture contained the substrate ([…]) and the appropriate amount of enzyme. The reaction was stopped by the addition of Na2CO3 ([…]). The released para-nitrophenol was measured spectrometrically at 400 nm. All reactions were run in […].

β-D-mannosidase (snail) = assay: Glycosidase inhibition (Table 2 panel); type: biochemical
Source text: as §1, §2

α-D-glucosidase (rice) = α-D-glucosidase (rice) (Oryza sativa subsp. japonica, UniProt Q653V7); assay: Glycosidase inhibition (Table 2 panel); type: biochemical
Source text: as §1, §2

[1] = tested on: T1, α-D-mannosidase (Jack bean); assay: Glycosidase inhibition (Table 2 panel); type: biochemical
T1 construct: purchased Sigma-Aldrich; host or cells: Jack bean
Source text: as §1, §2

[2] = tested on: T2, α-D-galactosidase (coffee beans); assay: Glycosidase inhibition (Table 2 panel); type: biochemical
T2 construct: purchased Sigma-Aldrich; host or cells: coffee beans
Source text: as §1, §2

[3] = tested on: T3, β-D-glucuronidase (E. coli); assay: Glycosidase inhibition (Table 2 panel); type: biochemical
T3 construct: purchased Sigma-Aldrich
Source text: as §1
as §2, with “For rat intestinal maltase, porcine kidney trehalase, and A. niger amyloglucosidase activities, the reaction mixture contained maltose (25 μM) and the appropriate amount of enzyme, and the incubations were performed for 10–30 min at 37 °C.” left out, “The absorbance at 505 nm was measured to determine the amount of the released D-glucose.” left out

[4] = tested on: T4, amyloglucosidase (A. niger); assay: Glycosidase inhibition (Table 2 panel); type: biochemical
T4 construct: purchased Sigma-Aldrich
Source text: as §1
as §2, with “For rat intestinal maltase, porcine kidney trehalase, and A. niger amyloglucosidase activities, the reaction mixture contained maltose (25 μM) and the appropriate amount of enzyme, and the incubations were performed for 10–30 min at 37 °C.” left out, “The absorbance at 505 nm was measured to determine the amount of the released D-glucose.” left out

α-D-glucosidase (yeast) = biological target: T5, α-D-glucosidase (yeast) (Saccharomyces cerevisiae, UniProt P53341); assay: Glycosidase inhibition (Table 2 panel); type: biochemical; settings: for inhibition at 100 µM: read-out: inhibition % α-D-Glucosidase Yeast
T5 construct: purchased Sigma-Aldrich
Source text: as §1
as §2, with “For rat intestinal maltase, porcine kidney trehalase, and A. niger amyloglucosidase activities, the reaction mixture contained maltose (25 μM) and the appropriate amount of enzyme, and the incubations were performed for 10–30 min at 37 °C.” left out, “The absorbance at 505 nm was measured to determine the amount of the released D-glucose.” left out

[5] = tested on: HT29 (colorectal carcinoma); assay: Cancer screening, MTT growth inhibition; type: cell-based; settings: for inhibition at 25 µM / GI50: Homo sapiens; for inhibition at 25 µM: HT-29, 25 µM of drug, read-out: DOSE SCREEN percentage (%) cell growth inhibition HT29 Colon; for GI50: HT-29, 72 h, read-out: DOSE RESPONSE GI50 HT29 Colon
Experimental: (§3) For Table 4, all test agents were prepared as stock solutions ([…]) in dimethyl sulfoxide (DMSO) and stored at −20 °C. Cell lines used in the study included HT29 (colorectal carcinoma), A2780 (ovarian carcinoma), H460 (lung carcinoma), A431 (skin carcinoma), MiaPaCa-2 (pancreatic carcinoma), and SMA560 (spontaneous murine astrocytoma), together with MCF10A (non-tumour derived normal breast cell line). Cell line sources: the HT29, H460, and MiaPaCa-2, together with MCF10A were purchased from ATCC. The A2780 and A431 were purchased from the European Collection of Cell Culture (ECACC). All cell lines were incubated in a humidified atmosphere 5% CO2 at 37 °C. The cancer cell lines were maintained in Dulbecco’s modified Eagle’s medium (DMEM; Sigma, Truganina, Australia) supplemented with foetal bovine serum (10%), sodium pyruvate ([…]), penicillin (100 IUmL^−1), streptomycin (100 µg mL^−1), and L-glutamine ([…]).
(§4) Growth inhibition was determined by plating cells in duplicate in medium (100 µL) at a density of 2500–4000 cells per well in 96-well plates. On day 0 (24 h after plating), when the cells are in logarithmic growth, medium (100 µL) with or without the test agent was added to each well. […] Each data point is the mean ± the standard error of the mean (SEM) calculated from three replicates which were performed on separate occasions and separate cell line passages.

A431 (skin carcinoma) = assay: Cancer screening, MTT growth inhibition; type: cell-based; settings: for inhibition at 25 µM / GI50: Homo sapiens; for inhibition at 25 µM: A-431, 25 µM of drug, read-out: DOSE SCREEN percentage (%) cell growth inhibition A431 Skin; for GI50: A-431, 72 h, read-out: DOSE RESPONSE GI50 A431 Skin
Experimental: as §3, §4

H460 (lung carcinoma) = assay: Cancer screening, MTT growth inhibition; type: cell-based; settings: for inhibition at 25 µM / GI50: Homo sapiens; for inhibition at 25 µM: NCI-H460, 25 µM of drug, read-out: DOSE SCREEN percentage (%) cell growth inhibition H460 Lung; for GI50: NCI-H460, 72 h, read-out: DOSE RESPONSE GI50 H460 Lung
Experimental: as §3, §4

[6] = tested on: A2780 (ovarian carcinoma); assay: Cancer screening, MTT growth inhibition; type: cell-based; settings: for inhibition at 25 µM / GI50: Homo sapiens; for inhibition at 25 µM: A2780, 25 µM of drug, read-out: DOSE SCREEN percentage (%) cell growth inhibition A2780 Ovarian; for GI50: A2780, 72 h, read-out: DOSE RESPONSE GI50 A2780 Ovarian
Experimental: as §3, §4

[7] = tested on: MIA-Pa-Ca2 (pancreatic carcinoma); assay: Cancer screening, MTT growth inhibition; type: cell-based; settings: for inhibition at 25 µM / GI50: Homo sapiens; for inhibition at 25 µM: MIA PaCa-2, 25 µM of drug, read-out: DOSE SCREEN percentage (%) cell growth inhibition MIA-Pa-Ca2 Pancreatic; for GI50: MIA PaCa-2, 72 h, read-out: DOSE RESPONSE GI50 MIA-Pa-Ca2 Pancreatic
Experimental: as §3, §4

[8] = listed as of the 1000 μM series

Chain of α-D-glucosidase (rice) (Q653V7 34-885): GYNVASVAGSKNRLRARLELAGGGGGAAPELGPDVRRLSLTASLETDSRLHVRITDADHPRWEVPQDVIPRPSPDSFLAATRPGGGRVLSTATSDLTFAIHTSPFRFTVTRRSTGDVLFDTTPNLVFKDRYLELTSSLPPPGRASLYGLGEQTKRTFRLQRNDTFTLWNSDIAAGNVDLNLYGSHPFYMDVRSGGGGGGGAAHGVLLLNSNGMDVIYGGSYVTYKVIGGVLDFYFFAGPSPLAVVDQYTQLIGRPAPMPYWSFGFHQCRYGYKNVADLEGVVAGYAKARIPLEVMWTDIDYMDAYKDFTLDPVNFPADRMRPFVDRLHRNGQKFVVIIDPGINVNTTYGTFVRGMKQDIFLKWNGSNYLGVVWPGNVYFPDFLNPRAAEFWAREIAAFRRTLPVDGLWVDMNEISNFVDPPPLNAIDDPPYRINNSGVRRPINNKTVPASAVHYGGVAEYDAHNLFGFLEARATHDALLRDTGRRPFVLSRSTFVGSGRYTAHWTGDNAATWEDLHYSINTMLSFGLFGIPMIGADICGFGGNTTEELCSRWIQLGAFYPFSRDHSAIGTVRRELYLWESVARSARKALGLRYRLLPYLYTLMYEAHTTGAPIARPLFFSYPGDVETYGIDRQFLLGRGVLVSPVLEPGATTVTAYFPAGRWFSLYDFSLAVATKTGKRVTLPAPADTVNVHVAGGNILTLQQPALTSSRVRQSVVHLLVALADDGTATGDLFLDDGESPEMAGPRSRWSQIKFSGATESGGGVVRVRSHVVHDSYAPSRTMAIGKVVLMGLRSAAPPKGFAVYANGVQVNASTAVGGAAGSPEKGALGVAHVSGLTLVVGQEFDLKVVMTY
T5 sequence (P53341 whole entry): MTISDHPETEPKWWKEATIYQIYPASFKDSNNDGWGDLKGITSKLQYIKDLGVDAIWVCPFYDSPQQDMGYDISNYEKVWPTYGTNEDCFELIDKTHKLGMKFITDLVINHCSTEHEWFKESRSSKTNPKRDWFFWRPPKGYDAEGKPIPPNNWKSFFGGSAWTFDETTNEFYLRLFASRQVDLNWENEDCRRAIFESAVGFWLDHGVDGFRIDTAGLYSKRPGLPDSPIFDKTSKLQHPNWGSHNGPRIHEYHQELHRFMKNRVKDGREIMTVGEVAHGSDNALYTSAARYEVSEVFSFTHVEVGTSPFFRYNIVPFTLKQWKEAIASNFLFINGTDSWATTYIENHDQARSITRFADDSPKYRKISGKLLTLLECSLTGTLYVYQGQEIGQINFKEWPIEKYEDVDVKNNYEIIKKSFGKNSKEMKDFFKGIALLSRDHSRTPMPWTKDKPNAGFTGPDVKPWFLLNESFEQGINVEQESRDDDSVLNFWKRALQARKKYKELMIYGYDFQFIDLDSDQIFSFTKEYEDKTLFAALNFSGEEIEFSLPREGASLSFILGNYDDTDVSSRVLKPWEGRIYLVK

SMILES	inhibition % β-D-Glucosidase Almond (β-D-glucosidase (almond); at 100 μM)	inhibition % β-D-Mannosidase Snail (β-D-mannosidase (snail); at 100 μM)	inhibition at 100 µM (α-D-glucosidase (rice); at 100 μM)	inhibition % α-D-Mannosidase Jack Bean ([1]; at 100 μM)	inhibition % α-D-Galactosidase Coffee Beans ([2]; at 100 μM)	inhibition % β-D-Glucuronidase E. coli ([3]; at 100 μM)	inhibition % Amyloglucosidase A. niger ([4]; at 100 μM)	inhibition at 100 µM (α-D-glucosidase (yeast))	inhibition at 25 µM ([5]; 72 h)	GI50 [5]	inhibition at 25 µM (A431 (skin carcinoma); 72 h)	GI50 (A431 (skin carcinoma))	inhibition at 25 µM (H460 (lung carcinoma); 72 h)	GI50 (H460 (lung carcinoma))	inhibition at 25 µM ([6]; 72 h)	GI50 [6]	inhibition at 25 µM ([7]; 72 h)	GI50 [7]	also measured
OC[C@H](O)[C@@H]1[C@H](O)[C@H](O)CN1Cc1ccccc1B(O)O [ortho 4, N-(2-Methylphenylboronic acid)-1,4-dideoxy-1,4-imino-L-gulitol]	^cNI ^d(2.6%)	^cNI ^d(5.3%)	0%	^cNI ^d(5.6%)	^cNI ^d(0%)	^cNI ^d(0%)	^cNI ^d(0%)	0%	< 0%	> 50 µM	17 ± 2%	> 50 µM	8 ± 2%	> 50 µM	16 ± 8%	> 50 µM	7 ± 2%	> 50 µM	inhibition % β-D-Glucosidase Almond (β-D-glucosidase (almond); at 1000 μM): ^aNI ^b(40.1%); inhibition % β-D-Mannosidase Snail (β-D-mannosidase (snail); at 1000 μM): ^aNI ^b(2.3%); IC50 (α-D-glucosidase (rice); [8]): 622 µM; inhibition % α-D-Mannosidase Jack Bean ([1]; at 1000 μM): ^aNI ^b(0.4%); inhibition % α-D-Galactosidase Coffee Beans ([2]; at 1000 μM): ^aNI ^b(2.7%); inhibition % β-D-Glucuronidase E. coli ([3]; at 1000 μM): ^aNI ^b(31.8%); inhibition % Amyloglucosidase A. niger ([4]; at 1000 μM): ^aNI ^b(0%); IC50 (α-D-glucosidase (yeast); [8]): 784 µM
CC1(C)O[C@H]2O[C@H]3[C@@H]([C@H]2O1)N(Cc1ccccc1B(O)O)C[C@H]3O [ortho 5]	^cNI ^d(2.7%)	^cNI ^d(7.0%)	6.7%	^cNI ^d(12.9%)	^cNI ^d(8.5%)	^cNI ^d(1.2%)	^cNI ^d(4.9%)	0%	4 ± 4%	> 50 µM	9 ± 4%	> 50 µM	2 ± 2%	> 50 µM	19 ± 2%	> 50 µM	12 ± 3%	> 50 µM	
N[C@@H](Cc1ccc(B(O)O)cc1)C(=O)O [^10B-BPA, reference compound]	^cNI ^d(0%)	^cNI ^d(0.3%)		^cNI ^d(0%)	^cNI ^d(1.2%)	^cNI ^d(2.4%)	^cNI ^d(0%)												inhibition % α-D-Glucosidase Rice (α-D-glucosidase (rice); at 100 μM): ^cNI ^d(0%); inhibition % α-D-Glucosidase Yeast (α-D-glucosidase (yeast); at 100 μM): ^cNI ^d(0%); DOSE SCREEN percentage (%) cell growth inhibition HT29 Colon ([5]; 25 µM of drug, 72 h): * 15 ± 4%; DOSE SCREEN percentage (%) cell growth inhibition A431 Skin (A431 (skin carcinoma); 25 µM of drug, 72 h): * 4 ± 4%; DOSE SCREEN percentage (%) cell growth inhibition H460 Lung (H460 (lung carcinoma); 25 µM of drug, 72 h): * 8 ± 5%; DOSE SCREEN percentage (%) cell growth inhibition A2780 Ovarian ([6]; 25 µM of drug, 72 h): * 8 ± 4%; DOSE SCREEN percentage (%) cell growth inhibition MIA-Pa-Ca2 Pancreatic ([7]; 25 µM of drug, 72 h): * 11 ± 3%
CC1(C)O[C@H]2O[C@H]3[C@@H]([C@H]2O1)N(Cc1cccc(O)c1)C[C@H]3O [meta 6]	^cNI ^d(6.3%)	^cNI ^d(0.6%)	0%	^cNI ^d(9.5%)	^cNI ^d(0%)	^cNI ^d(0%)	^cNI ^d(4.8%)	0%	4 ± 3%	> 50 µM	4 ± 9%	> 50 µM	6 ± 3%	> 50 µM	23 ± 6%	> 50 µM	12 ± 4%	> 50 µM	
